Laboratory results from the NIST ThermoML archive (doi:10.1021/je3009599).
Numbers after ± are expanded uncertainties.

Settings: Liquid

Structure (SMILES): CCCC(=O)OCC [ethyl butanoate]
- vapor or sublimation pressure (348.97 K): 22.5 ± 0.11 kPa
- vapor or sublimation pressure (351.83 K): 25 ± 0.11 kPa
- vapor or sublimation pressure (354.39 K): 27.5 ± 0.11 kPa
- vapor or sublimation pressure (356.76 K): 30.03 ± 0.11 kPa
- vapor or sublimation pressure (359 K): 32.51 ± 0.12 kPa
- vapor or sublimation pressure (361.08 K): 35.02 ± 0.12 kPa
- vapor or sublimation pressure (363.04 K): 37.52 ± 0.12 kPa
- vapor or sublimation pressure (364.86 K): 40.04 ± 0.12 kPa
- vapor or sublimation pressure (366.66 K): 42.51 ± 0.13 kPa
- vapor or sublimation pressure (368.24 K): 45.03 ± 0.13 kPa
- vapor or sublimation pressure (369.87 K): 47.51 ± 0.13 kPa
- vapor or sublimation pressure (371.44 K): 50.01 ± 0.13 kPa
- vapor or sublimation pressure (372.86 K): 52.51 ± 0.13 kPa
- vapor or sublimation pressure (374.31 K): 55.03 ± 0.14 kPa
- vapor or sublimation pressure (375.67 K): 57.52 ± 0.14 kPa
- vapor or sublimation pressure (376.95 K): 60 ± 0.14 kPa
- vapor or sublimation pressure (379.48 K): 65.03 ± 0.15 kPa
- vapor or sublimation pressure (380.68 K): 67.53 ± 0.15 kPa
- vapor or sublimation pressure (381.82 K): 70 ± 0.15 kPa
- vapor or sublimation pressure (382.96 K): 72.52 ± 0.15 kPa
- vapor or sublimation pressure (384.07 K): 75.01 ± 0.16 kPa
- vapor or sublimation pressure (385.13 K): 77.51 ± 0.16 kPa
- vapor or sublimation pressure (386.19 K): 79.99 ± 0.16 kPa
- vapor or sublimation pressure (387.22 K): 82.52 ± 0.17 kPa
- vapor or sublimation pressure (388.21 K): 85.02 ± 0.17 kPa
- vapor or sublimation pressure (389.17 K): 87.54 ± 0.17 kPa
- vapor or sublimation pressure (390.12 K): 89.98 ± 0.17 kPa
- vapor or sublimation pressure (391.06 K): 92.53 ± 0.18 kPa
- vapor or sublimation pressure (391.95 K): 94.92 ± 0.18 kPa
- vapor or sublimation pressure (392.83 K): 97.45 ± 0.18 kPa
- vapor or sublimation pressure (393.71 K): 100.01 ± 0.19 kPa
- vapor or sublimation pressure (394.13 K): 101.31 ± 0.19 kPa

Structure (SMILES): CCCC(C)O (stereo not given) [pentan-2-ol]
- vapor or sublimation pressure (354.47 K): 22.55 ± 0.11 kPa
- vapor or sublimation pressure (356.6 K): 25.05 ± 0.11 kPa
- vapor or sublimation pressure (358.86 K): 27.47 ± 0.11 kPa
- vapor or sublimation pressure (360.81 K): 30.03 ± 0.11 kPa
- vapor or sublimation pressure (362.76 K): 32.55 ± 0.12 kPa
- vapor or sublimation pressure (364.38 K): 35.08 ± 0.12 kPa
- vapor or sublimation pressure (366 K): 37.56 ± 0.12 kPa
- vapor or sublimation pressure (367.49 K): 40.03 ± 0.12 kPa
- vapor or sublimation pressure (369.03 K): 42.51 ± 0.12 kPa
- vapor or sublimation pressure (370.52 K): 45.07 ± 0.13 kPa
- vapor or sublimation pressure (371.77 K): 47.54 ± 0.13 kPa
- vapor or sublimation pressure (373.05 K): 50.02 ± 0.13 kPa
- vapor or sublimation pressure (374.33 K): 52.58 ± 0.13 kPa
- vapor or sublimation pressure (375.51 K): 55.03 ± 0.13 kPa
- vapor or sublimation pressure (376.68 K): 57.48 ± 0.13 kPa
- vapor or sublimation pressure (377.81 K): 60.03 ± 0.13 kPa
- vapor or sublimation pressure (378.95 K): 62.45 ± 0.14 kPa
- vapor or sublimation pressure (379.97 K): 65.05 ± 0.14 kPa
- vapor or sublimation pressure (381.01 K): 67.58 ± 0.14 kPa
- vapor or sublimation pressure (381.96 K): 70.03 ± 0.15 kPa
- vapor or sublimation pressure (382.9 K): 72.56 ± 0.15 kPa
- vapor or sublimation pressure (383.88 K): 75.05 ± 0.15 kPa
- vapor or sublimation pressure (384.79 K): 77.59 ± 0.15 kPa
- vapor or sublimation pressure (385.64 K): 80.03 ± 0.15 kPa
- vapor or sublimation pressure (386.56 K): 82.58 ± 0.16 kPa
- vapor or sublimation pressure (387.35 K): 85.01 ± 0.16 kPa
- vapor or sublimation pressure (388.19 K): 87.55 ± 0.16 kPa
- vapor or sublimation pressure (389 K): 90.09 ± 0.16 kPa
- vapor or sublimation pressure (389.76 K): 92.52 ± 0.16 kPa
- vapor or sublimation pressure (390.55 K): 95.02 ± 0.17 kPa
- vapor or sublimation pressure (391.31 K): 97.55 ± 0.17 kPa
- vapor or sublimation pressure (392.07 K): 100.03 ± 0.18 kPa
- vapor or sublimation pressure (392.26 K): 101.38 ± 0.3 kPa
